Assay results reported in US12493040B2, “Cancer detection method using sense of smell of nematode” (HIROTSU BIO SCIENCE INC., priority 2013, dated 2025).

Tested on: RNAi-treated eri-1 (mg366) nematodes
Experiment: RNAi screening of olfactory receptor genes: chemotaxis assay of RNAi-treated nematodes to odorants
Assay type: in vivo, Caenorhabditis elegans
Settings: repellent or high concentration of attractant
Description: The RNAi assay was carried out by performing an RNAi method involving the feeding (feeding RNAi method) of eri-1 (mg366) (19), using an Ahringer library (37).
Nine adult eri-1 mutants were placed on an NGM plate containing isopropyl 1-D-1-thiogalactopyranoside (0.19 g/L), ampicillin (60 mg/L), and Escherichia coli (E. coli), and were then cultured for 4 days. Subsequently, the adult worms were used in a chemotaxis assay. The chemotaxis assay was carried out as previously reported (6, 17). In the chemotaxis assay, the present inventor has used 30 to 50 worms in each experiment in which 1 μl of 10^−3- or 10^−4-diluted odorant (low concentration), or 1 and 5 μl of undiluted odorants (high concentration) were used.
The z score and a control value in each single test from 2SD were calculated in all days (Table 3) or every day. The z score was used as a threshold indicating a great difference (−1.96 and 1.96, P<0.05). […] Accordingly, the present inventor has used the z score±1 (−0.96 and 0.96, P<0.33) as a weaker threshold.

`CC(=O)C(C)=O` [High Da] was tested, and the chemotaxis index (Control nematodes) was −0.62 ± 0.012, the chemotaxis index (srh-4 RNAi-treated nematodes) was −0.81 and the chemotaxis index (srh-7 RNAi-treated nematodes) was −0.83. The chemotaxis index (srh-8 RNAi-treated nematodes) was −0.63, the chemotaxis index (srh-10 RNAi-treated nematodes) was 0.20 and the chemotaxis index (srh-11 RNAi-treated nematodes) was −0.65. For the same molecule, the chemotaxis index (srh-15 RNAi-treated nematodes) was −0.54, the chemotaxis index (srh-16 RNAi-treated nematodes) was −0.65 and the chemotaxis index (srh-18 RNAi-treated nematodes) was −0.74. The chemotaxis index (srh-19 RNAi-treated nematodes) was −0.43, the chemotaxis index (srh-22 RNAi-treated nematodes) was −0.74 and the chemotaxis index (srh-23 RNAi-treated nematodes) was −0.87. For the same molecule, the chemotaxis index (srh-24 RNAi-treated nematodes) was −0.67, the chemotaxis index (srh-25 RNAi-treated nematodes) was −0.22 and the chemotaxis index (srh-27 RNAi-treated nematodes) was −0.80. It also gave a chemotaxis index (srh-28 RNAi-treated nematodes) of −0.58, a chemotaxis index (srh-36 RNAi-treated nematodes) of −0.46 and a chemotaxis index (srh-37 RNAi-treated nematodes) of −0.34. For the same molecule, the chemotaxis index (srh-39 RNAi-treated nematodes) was −0.51, the chemotaxis index (srh-40 RNAi-treated nematodes) was −0.46 and the chemotaxis index (srh-41 RNAi-treated nematodes) was −0.21. It also gave a chemotaxis index (srh-44 RNAi-treated nematodes) of −0.25, a chemotaxis index (srh-45 RNAi-treated nematodes) of −0.47 and a chemotaxis index (srh-46 RNAi-treated nematodes) of −0.82. For the same molecule, the chemotaxis index (srh-48 RNAi-treated nematodes) was −0.49, the chemotaxis index (srh-49 RNAi-treated nematodes) was −0.62 and the chemotaxis index (srh-50 RNAi-treated nematodes) was −0.52. It also gave a chemotaxis index (srh-51 RNAi-treated nematodes) of −0.73, a chemotaxis index (srh-52 RNAi-treated nematodes) of −0.78 and a chemotaxis index (srh-55 RNAi-treated nematodes) of −0.78. It also gave a chemotaxis index (srh-59 RNAi-treated nematodes) of −0.24, a chemotaxis index (srh-60 RNAi-treated nematodes) of −0.64 and a chemotaxis index (srh-61 RNAi-treated nematodes) of −0.57. For the same molecule, the chemotaxis index (srh-67 RNAi-treated nematodes) was −0.58, the chemotaxis index (srh-68 RNAi-treated nematodes) was −0.49 and the chemotaxis index (srh-69 RNAi-treated nematodes) was −0.76. The chemotaxis index (srh-70 RNAi-treated nematodes) was −0.87, the chemotaxis index (srh-71 RNAi-treated nematodes) was −0.38 and the chemotaxis index (srh-72 RNAi-treated nematodes) was −0.73. For the same molecule, the chemotaxis index (srh-74 RNAi-treated nematodes) was −0.54, the chemotaxis index (srh-75 RNAi-treated nematodes) was −0.42 and the chemotaxis index (srh-77 RNAi-treated nematodes) was −0.34. For the same molecule, the chemotaxis index (srh-79 RNAi-treated nematodes) was 0.35, the chemotaxis index (srh-80 RNAi-treated nematodes) was −0.48 and the chemotaxis index (srh-82 RNAi-treated nematodes) was −0.36. The chemotaxis index (srh-83 RNAi-treated nematodes) was −0.23, the chemotaxis index (srh-97 RNAi-treated nematodes) was −0.42 and the chemotaxis index (srh-99 RNAi-treated nematodes) was −0.24. The chemotaxis index (srh-100 RNAi-treated nematodes) was −0.75, the chemotaxis index (srh-104 RNAi-treated nematodes) was −0.39 and the chemotaxis index (srh-105 RNAi-treated nematodes) was −0.58. It also gave a chemotaxis index (srh-109 RNAi-treated nematodes) of −0.59, a chemotaxis index (srh-111 RNAi-treated nematodes) of −0.35 and a chemotaxis index (srh-113 RNAi-treated nematodes) of −0.62. The chemotaxis index (srh-115 RNAi-treated nematodes) was −0.57, the chemotaxis index (srh-116 RNAi-treated nematodes) was −0.36 and the chemotaxis index (srh-118 RNAi-treated nematodes) was −0.64. The chemotaxis index (srh-119 RNAi-treated nematodes) was −0.78, the chemotaxis index (srh-120 RNAi-treated nematodes) was −0.66 and the chemotaxis index (srh-122 RNAi-treated nematodes) was −0.53. The chemotaxis index (srh-123 RNAi-treated nematodes) was −0.55, the chemotaxis index (srh-125 RNAi-treated nematodes) was −0.59 and the chemotaxis index (srh-128 RNAi-treated nematodes) was −0.48. For the same molecule, the chemotaxis index (srh-129 RNAi-treated nematodes) was −0.69, the chemotaxis index (srh-130 RNAi-treated nematodes) was −0.37 and the chemotaxis index (srh-131 RNAi-treated nematodes) was −0.34. The chemotaxis index (srh-132 RNAi-treated nematodes) was −0.83, the chemotaxis index (srh-139 RNAi-treated nematodes) was −0.42 and the chemotaxis index (srh-140 RNAi-treated nematodes) was −0.46. For the same molecule, the chemotaxis index (srh-141 RNAi-treated nematodes) was −0.77, the chemotaxis index (srh-142 RNAi-treated nematodes) was −0.49 and the chemotaxis index (srh-145 RNAi-treated nematodes) was −0.85. It also gave a chemotaxis index (srh-148 RNAi-treated nematodes) of −0.69, a chemotaxis index (srh-154 RNAi-treated nematodes) of −0.65 and a chemotaxis index (srh-159 RNAi-treated nematodes) of −0.45. For the same molecule, the chemotaxis index (srh-165 RNAi-treated nematodes) was −0.79, the chemotaxis index (srh-166 RNAi-treated nematodes) was −0.83 and the chemotaxis index (srh-167 RNAi-treated nematodes) was −0.89. The chemotaxis index (srh-169 RNAi-treated nematodes) was −0.92, the chemotaxis index (srh-174 RNAi-treated nematodes) was −0.69 and the chemotaxis index (srh-179 RNAi-treated nematodes) was −0.87. It also gave a chemotaxis index (srh-182 RNAi-treated nematodes) of −0.86, a chemotaxis index (srh-186 RNAi-treated nematodes) of −0.80 and a chemotaxis index (srh-190 RNAi-treated nematodes) of −0.91. The chemotaxis index (srh-193 RNAi-treated nematodes) was −0.53, the chemotaxis index (srh-195 RNAi-treated nematodes) was −0.80 and the chemotaxis index (srh-201 RNAi-treated nematodes) was −0.95. It also gave a chemotaxis index (srh-203 RNAi-treated nematodes) of −0.94, a chemotaxis index (srh-204 RNAi-treated nematodes) of −0.89 and a chemotaxis index (srh-206 RNAi-treated nematodes) of −0.79. It also gave a chemotaxis index (srh-207 RNAi-treated nematodes) of −0.87, a chemotaxis index (srh-208 RNAi-treated nematodes) of −0.76 and a chemotaxis index (srh-209 RNAi-treated nematodes) of −0.70. It also gave a chemotaxis index (srh-210 RNAi-treated nematodes) of −0.56, a chemotaxis index (srh-214 RNAi-treated nematodes) of −0.60 and a chemotaxis index (srh-216 RNAi-treated nematodes) of −0.61. It also gave a chemotaxis index (srh-217 RNAi-treated nematodes) of −0.50, a chemotaxis index (srh-220 RNAi-treated nematodes) of −0.42 and a chemotaxis index (srh-222 RNAi-treated nematodes) of −0.66. It also gave a chemotaxis index (srh-223 RNAi-treated nematodes) of −0.50.
